Legend:
LPAR1 = target: T1, LPAR1 (Homo sapiens, UniProt Q92633); test: LPAR1 FLIPR Assay; type: cell-based; conditions: U2OS cells stably expressing LPAR1, LPA (EC80), Calcium 6 FLIPR dye; for Emax: read-out: Maximum Inhibition
T1 construct: host or cells: U2OS
Summary of the method: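 Calcium flux read-out (515-575 nm, FLIPR) in LPAR1-expressing U2OS cells after LPA challenge at EC80, given 3 min after compound addition; cells carried Calcium 6 dye loaded 2 h at 37° C. Eleven-point 3-fold dilutions were fitted with a four-parameter Hill equation for IC50.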

[1] = tested on: LPA-induced MCP-1 in NRK-49F cells; test: LPA-induced MCP-1 AlphaLISA assay; type: cell-based; conditions: Rattus norvegicus, final LPA 10 μM, 7 hours; for Emax: read-out: Maximum Inhibition
Method: Two days prior to the experiment, NRK-49F cells were plated at 8,000 cells/well in 100 μL of growth medium [DMEM (Life Technologies #11995) with 5% dFBS (Life Technologies #30067-334), 100 units/mL penicillin/streptomycin (Life Technologies #15140122)] in 96-well clear flat bottom polystyrene TC-treated microplate (Corning® #3599) and incubated in humidified 10% CO2 at 37° C. One day prior to the experiment, the cell medium was removed and serum free medium [100 μL/well, DMEM (Life Technologies #11995) with 0.1% fatty acid free BSA (Sigma #A6003)] was added with continued incubation in humidified 10% CO2 at 37° C. overnight. On the day of the assay, test compounds were 1:3 serially diluted in 100% DMSO using a BioTek Precision™ system and then transferred (equivalent volume of DMSO as controls) to a plate in serum free medium [DMEM with 0.1% fatty acid free BSA] using a Biomek® NX workstation to give a 2× compound solution. The cell culture medium was removed, and cells were pre-treated with 50 μL/well of 2× compound in serum free medium [DMEM with 0.1% fatty acid free BSA] at 37° C. for 30 minutes. Following the incubation, 50 μL/well of 20 μM LPA diluted in serum free medium [DMEM with 0.1% fatty acid free BSA] was added to the cells. Serum free medium [DMEM with 0.1% fatty acid free BSA] was used as substitution for low control wells while 20 µM LPA was added to high control wells and test compound wells. 200 µM LPA was added to EC100 wells. Final DMSO concentration was 1% in every well. Final LPA concentration in test compound wells and high control wells was 10 μM. […] After the incubation, cell supernatant was transferred to a new 96 well polypropylene plate (Greiner #651201) where it was sealed and stored at −80° C. On the detection day, 5 μL of thawed cell supernatant was transferred to a new white opaque 384-well microplate (Perkin Elmer #6007299). An AlphaLISA® mouse/rat CCL2/MCP1, Immunoassay Research kit (PerkinElmer #AL509F) was used. A mixture (20 μL/well) of AlphaLISA® Anti-Analyte Accept beads (10 μg/mL final) and Biotinylated Antibody Anti-Analyte (freshly prepared, 1 nM final) was added. The mixture in the wells was mixed and then incubated at room temperature for 1 hour. Then SA-Donor beads (25 μL/well, 40 μg/mL final) were added giving a final volume of 50 μL/well. The contents of the wells were mixed and then incubated at room temperature for 0.5 hour (protect from light). The plate was read using the default Envision™ Alpha protocol (PerkinElmer). IC50 values were calculated from curve fits of the ratio data using a four-parameter logistic Hill equation (Assay Explorer 3.3 Client).

T1 sequence (Q92633 whole entry): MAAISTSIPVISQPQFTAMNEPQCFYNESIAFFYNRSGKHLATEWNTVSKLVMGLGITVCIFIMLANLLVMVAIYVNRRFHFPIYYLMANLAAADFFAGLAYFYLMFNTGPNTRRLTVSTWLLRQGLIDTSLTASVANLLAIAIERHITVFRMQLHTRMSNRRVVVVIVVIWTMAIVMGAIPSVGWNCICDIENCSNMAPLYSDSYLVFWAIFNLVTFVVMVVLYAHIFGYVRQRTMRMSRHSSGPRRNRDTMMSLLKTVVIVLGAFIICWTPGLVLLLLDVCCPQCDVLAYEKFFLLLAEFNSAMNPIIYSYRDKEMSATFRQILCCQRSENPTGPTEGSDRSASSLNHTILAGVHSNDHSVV

| SMILES | IC50 (LPAR1) | Emax (LPAR1) | IC50 [1] | Emax [1] |
| --- | --- | --- | --- | --- |
| COc1cc(C(=O)N(CCCc2ccccc2)CCCC(Cc2ccccc2)C(=O)O)cc(OC)c1C (stereo not shown) [Example 52, 2-benzyl-5-[(3,5-dimethoxy-4-methylbenzoyl)(3-phenylpropyl)amino]pentanoic Acid] | 124 nM | 87% | 1010 nM | 77% |
| COc1cc(C(=O)N(CCCCC(=O)O)CCc2ccccc2)cc(OC)c1C [Example 95, 5-[(3,5-dimethoxy-4-methylbenzoyl)(2-phenylethyl)amino]pentanoic Acid] | > 30000 nM | 10% | > 10000 nM | 18% |
| COc1cc(C(=O)N(CCCCC(=O)O)Cc2ccccc2)cc(OC)c1C [Example 94, 5-[benzyl(3,5-dimethoxy-4-methylbenzoyl)amino]pentanoic Acid] | > 30000 nM | 2% | > 10000 nM | 13% |
| COc1cc(C(=O)N(CCCCC(=O)NS(=O)(=O)c2ccccc2)CCCc2ccccc2)cc(OC)c1C [Example 144, N-{5-[(benzenesulfonyl)amino]-5-oxopentyl}-3,5-dimethoxy-4-methyl-N-(3-phenylpropyl)benzamide] | 99 nM | 92% | 1090 nM | 96% |
| COc1cc(C(=O)N(CCCOC(=O)NS(=O)(=O)c2ccc(F)cc2)CCCc2ccccc2)cc(OC)c1C [Example 145, 3-[(3,5-dimethoxy-4-methylbenzoyl)(3-phenylpropyl)amino]propyl (4-fluorobenzene-1-sulfonyl)carbamate] | 437 nM | 51% | 3960 nM | 59% |
| CCC1CCC(NC(=O)CN(CCCc2ccccc2)C(=O)c2cc(OC)c(C)c(OC)c2)(C(=O)O)CC1 (stereo not shown) [Example 104, 1-{[N-(3,5-dimethoxy-4-methylbenzoyl)-N-(3-phenylpropyl)glycyl]amino}-4-ethylcyclohexane-1-carboxylic Acid] | 94 nM | 95% | 2900 nM | 74% |
| COc1cc(C(=O)N(CCCc2ccccc2Cl)CCSCC(=O)O)cc(OC)c1C [Example 112, [(2-{[3-(2-chlorophenyl)propyl](3,5-dimethoxy-4-methylbenzoyl)amino}ethyl)sulfanyl]acetic Acid] | 315 nM | 77% | 996 nM | 78% |
| O=C(O)CCCCN(CCCc1ccccc1)C(=O)c1ccc2c(c1)OCO2 [Example 80, 5-[(2H-1,3-benzodioxole-5-carbonyl)(3-phenylpropyl)amino]pentanoic Acid] | > 30000 nM | 37% | > 10000 nM | 37% |
| COc1cc(C(=O)N(CCCCC(=O)O)CCCc2ccccc2)ccc1Cl [Example 17, 5-[(4-chloro-3-methoxybenzoyl)(3-phenylpropyl)amino]pentanoic Acid] | 3980 nM | 61% | > 1300 nM | 65% |
| COc1cc(C(=O)N(CCCc2cc(F)cc(F)c2)CCSCC(=O)O)cc(OC)c1C [Example 125, [(2-{[3-(3,5-difluorophenyl)propyl](3,5-dimethoxy-4-methylbenzoyl)amino}ethyl)sulfanyl]acetic Acid] | > 10000 nM | 32% | > 10000 nM | 53% |
| O=C(O)CCCCN(CCCc1ccccc1)C(=O)C1CC(=O)Nc2cc(F)ccc21 (stereo not shown) [Example 170, 5-[(7-fluoro-2-oxo-1,2,3,4-tetrahydroquinoline-4-carbonyl)(3-phenylpropyl)amino]pentanoic Acid] | 333 nM | 81% | > 10000 nM | 50% |

Stronger by IC50 (LPAR1), values ahead:

| IC50 (LPAR1) | Emax (LPAR1) | IC50 [1] | SMILES | Emax [1] |
| --- | --- | --- | --- | --- |
| 84 nM | 64% | > 8190 nM | CCOc1cc(OCC)cc(C(=O)N(CCCCC(=O)O)CCCc2ccc(C)o2)c1 [Example 176, 5-{(3,5-diethoxybenzoyl)[3-(5-methylfuran-2-yl)propyl]amino}pentanoic Acid] | 53% |
| 81 nM | 71% | 5440 nM | COc1ccc(C2(C(=O)N(CCCc3ccccc3)CCOCC(=O)O)CC2)cc1 [Example 87, (2-{[1-(4-methoxyphenyl)cyclopropane-1-carbonyl](3-phenylpropyl)amino}ethoxy)acetic Acid] | 62% |
| 60 nM | 90% | 4490 nM | COc1ccc(C2(C(=O)N(CCCCC(=O)O)CCCc3cccc(F)c3)CC2)cc1 [Example 92, 5-{[3-(3-fluorophenyl)propyl][1-(4-methoxyphenyl)cyclopropane-1-carbonyl]amino}pentanoic Acid] | 72% |
| 50 nM | 89% | 1630 nM | CCOc1cc(OCC)cc(C(=O)N(CCCCC(=O)O)CCCc2ccccc2)c1 [Example 18, 5-[(3,5-diethoxybenzoyl)(3-phenylpropyl)amino]pentanoic Acid] | 86% |
| 48 nM | 100% | 105 nM | COc1cc(C(=O)N(CCCc2ccc(C)o2)CCCC(C)(C)C(=O)O)cc(OC)c1C [Example 180, 5-{(3,5-dimethoxy-4-methylbenzoyl)[3-(5-methylfuran-2-yl)propyl]amino}-2,2-dimethylpentanoic Acid] | 93% |
| 47 nM | 85% | 1550 nM | COc1ccc(C2(C(=O)N(CCCCC(=O)O)CCCc3cccc(Cl)c3)CC2)cc1 [Example 102, 5-{[3-(3-chlorophenyl)propyl][1-(4-methoxyphenyl)cyclopropane-1-carbonyl]amino}pentanoic Acid] | 80% |
| 46 nM | 89% | 807 nM | COc1cc(C(=O)N(CCCCC(=O)O)CCCc2ccc(F)cc2F)cc(OC)c1C [Example 146, 5-{[3-(2,4-difluorophenyl)propyl](3,5-dimethoxy-4-methylbenzoyl)amino}pentanoic Acid] | 79% |
| 46 nM | 97% | 1980 nM | COc1cc(C(=O)N(CCCc2ccc(C)o2)CCCC(C)C(=O)O)cc(OC)c1C (stereo not shown) [Example 179, 5-{(3,5-dimethoxy-4-methylbenzoyl)[3-(5-methylfuran-2-yl)propyl]amino}-2-methylpentanoic Acid] | 74% |
| 44 nM | 88% | 2980 nM | COc1ccc(C2(C(=O)N(CCCCC(=O)O)CCCc3ccccc3)CCC2)cc1 [Example 86, 5-{[1-(4-methoxyphenyl)cyclobutane-1-carbonyl](3-phenylpropyl)amino}pentanoic Acid] | 74% |
| 42 nM | 96% | 1060 nM | COc1cc(C(=O)N(CCCCc2nnn[nH]2)CCCc2ccccc2)cc(OC)c1C [Example 166, 3,5-dimethoxy-4-methyl-N-(3-phenylpropyl)-N-[4-(1H-tetrazol-5-yl)butyl]benzamide] | 80% |
| 32 nM | 87% | 1010 nM | COc1cc(C(=O)N(CCCc2c(F)cccc2F)CCSCC(=O)O)cc(OC)c1C [Example 113, [(2-{[3-(2,6-difluorophenyl)propyl](3,5-dimethoxy-4-methylbenzoyl)amino}ethyl)sulfanyl]acetic Acid] | 86% |
